The text below walks through data of PMC9698483, “Berbamine Reduces Chloroquine-Induced Itch in Mice through Inhibition of MrgprX1” (International Journal of Molecular Sciences, 2022).

The target in one data set is T1, TGR5 (Homo sapiens, UniProt Q8TDU6).
T1 construct: expressed in transfected cells; host or cells: CHO-K1
T1 sequence (Q8TDU6 1-330): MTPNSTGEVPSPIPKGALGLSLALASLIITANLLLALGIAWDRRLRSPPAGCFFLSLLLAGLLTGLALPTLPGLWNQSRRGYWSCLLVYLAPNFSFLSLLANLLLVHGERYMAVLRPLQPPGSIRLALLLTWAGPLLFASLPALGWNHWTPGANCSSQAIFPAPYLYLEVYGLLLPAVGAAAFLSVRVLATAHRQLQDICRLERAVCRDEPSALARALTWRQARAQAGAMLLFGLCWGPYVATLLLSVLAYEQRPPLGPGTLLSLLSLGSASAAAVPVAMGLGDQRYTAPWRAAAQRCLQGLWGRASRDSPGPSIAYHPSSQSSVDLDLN
Briefly: TGR5 activity by YFP fluorescence quenching assay in CHO-K1 cells. Format: cell-based. The following applies: 30 μM with 80 μM DCA for 10 min. As to the method: (§1) Figure 3 Effects of berbamine on the activity of other pruritogenic GPCRs: (A,B) Effect of berbamine on histamine 1 receptor (H1R) and histamine 4 receptor (H4R). H1R- and H4R-expressing HEK293T cells were pretreated with 30 μM BBM for 10 min prior to 100 μM histamine treatment. […] (C) Effect of berbamine on PAR2. HT29 cells were pretreated with BBM for 10 min prior to 30 μM PAR2-AP treatment. […] (D) Effect of berbamine on MrgprC11. MrgprC11-expressing HEK293T cells were pretreated with BBM for 10 min prior to 100 μM […] treatment. (E) Effect of berbamine on MrgprX4. MrgprX4-expressing HEK293T cells were pretreated with BBM for 10 min prior to 80 μM DCA treatment. (F) Effect of berbamine on TGR5. TGR5 activity was measured using a YFP fluorescence quenching assay. CHO-K1 cells coexpressing TGR5 and a halide sensor YFP were pretreated with BBM and 80 μM DCA for 10 min prior to I^- treatment. Results were summarized as means ± S.E. (n = 6). NTC, nontransfected cells.
All modulators were dissolved in DMSO, and cells were treated with a final concentration of 1% DMSO.

The target in a further data set is T2, MrgprC11 (Mus musculus, UniProt Q8CIP3).
T2 construct: expressed in transfected cells; host or cells: HEK293T
T2 sequence (Q8CIP3 1-322): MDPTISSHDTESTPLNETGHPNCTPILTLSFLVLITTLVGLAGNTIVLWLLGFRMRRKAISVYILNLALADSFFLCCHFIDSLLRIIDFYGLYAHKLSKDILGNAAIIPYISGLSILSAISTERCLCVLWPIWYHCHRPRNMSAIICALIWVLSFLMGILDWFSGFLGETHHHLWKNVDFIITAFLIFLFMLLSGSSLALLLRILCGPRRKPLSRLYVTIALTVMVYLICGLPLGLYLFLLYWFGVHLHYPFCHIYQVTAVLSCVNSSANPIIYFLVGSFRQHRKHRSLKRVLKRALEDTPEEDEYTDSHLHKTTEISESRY
The experiment in a line: Activation of MrgprC11 in MrgprC11-expressing HEK293T cells (calcium). Format: cell-based. On the procedure:
To investigate the effect of berbamine on other pruritogenic GPCRs, we observed the effect of berbamine on histamine H1 receptor (H1R), histamine H4 receptor (H4R), MrgprC11, MrgprX4, PAR2, and TGR5.
as §1
Intracellular calcium levels were measured using a Fluo-4 NW calcium assay kit (Invitrogen, Carlsbad, CA) as per the manufacturer’s protocol in HEK293T and HT29 cells. […]

On the set-up of data set [1]: method as in PMID 29100757. The conditions noted are these: human pharmacokinetic study; cited from earlier work.
The test system of a further data set is HEK293T cells. The experiment in a line: Ionomycin-induced increase in intracellular calcium levels in HEK293T cells. Type of data set: cell-based. The following applies: 10 μM ionomycin, 10 min pretreatment. On the procedure:
To investigate whether berbamine and closantel affect calcium signaling pathways, we observed the effects of berbamine and closantel on CQ- and ionomycin-induced increases in intracellular calcium concentrations in HEK-MrgprX1 and HEK293T cells, respectively.
Figure 2 Effect of berbamine and closantel on CQ- and ionomycin-induced increases in intracellular calcium levels: (A,B) Intracellular calcium levels were measured using Fluo−4 NW in HEK293T cells expressing MrgprX1. The cells were pretreated with the indicated concentrations of berbamine (BBM) and closantel (CLS) for 10 min prior to treatment with 300 μM CQ. (C) Summary of dose-response (mean ± S.E., n = 6). (D,E) Intracellular calcium levels were increased with 10 μM ionomycin in HEK239T cells. The cells were pretreated with the indicated concentrations of BBM and CLS for 10 min before treatment with ionomycin. (F) Summary of dose–response (mean ± S.E., n = 6).
Intracellular calcium levels were measured using a Fluo-4 NW calcium assay kit (Invitrogen, Carlsbad, CA) as per the manufacturer’s protocol in HEK293T and HT29 cells. […] After 1 h of incubation, Fluo-4 fluorescence was recorded with a FLUOstar Omega microplate reader equipped with syringe pumps and custom Fluo-4 excitation/emission filters (485/538 nm). […]
(In general: Calcium assays in cells follow changes in intracellular calcium, usually with a dye or a luminescent sensor.)

Usually half-life stands for the time needed for the level to fall by half in the phase considered. As to `COc1cc2c3cc1Oc1c(OC)c(OC)cc4c1[C@@H](Cc1ccc(O)c(c1)Oc1ccc(cc1)C[C@@H]3N(C)CC2)N(C)CC4` [berbamine], the “effect on DCA-induced activation of TGR5” value at TGR5 is on record as “did not alter”. Moreover, on MrgprC11 (30 μM, 10 min prior to 100 μM PAR2-AP), the “effect on PAR2-AP-induced activation of MrgprC11” value is “did not affect”. The “inhibitory effect on the activation of MrgprC11 by BAM8-22” value on MrgprC11 (concentrations up to 30 μM, 500 nM BAM8-22) is “minimal inhibitory effect”. Besides, the half-life in data set [1] is 39.25 h. The “effect on ionomycin-induced increase in intracellular calcium levels” value in the data set on HEK293T cells is given as “no effect”.
